Test results: patent US6528295B2, “Protein phosphatase methylesterase” (priority 1998, dated 2003)
Entries after “also recorded” stand apart in the source; their conditions may differ. *1 amine or outer side, *2 acyl side, *3 side chain or, on linkers, in order; H or OH if unused. Where a SMILES comes first, the peptide text is derived from it. Bridges are numbered along the chain shown (N, C = ends). [ ]: non-standard residue; d: D form. Adda = CO[C@@H](Cc1ccccc1)[C@@H](C)/C=C(C)/C=C/[C@H](N[*:1])[C@H](C)C(=O)[*:2]; dAsp(3S-Me) = C[C@H](C(=O)[*:3])[C@@H](N[*:1])C(=O)[*:2]; d(γGlu) = O=C(O)[C@@H](CCC(=O)[*:2])N[*:1]; NMeDha = C=C(NC)C(=O)O

Legend:
[1] = tested on: phosphorylase a and cdc2-phosphorylated histone H1; assay: Phosphatase activity in anti-HA tag immunoprecipitates of wt and mutant C subunits; type: biochemical; details: normalized to wt, four independent experiments
PME-1 = target: T1, PME-1 (Mus musculus, UniProt Q8BVQ5); assay: Immunoprecipitation assay of PME-1 binding to H59Q/301Stop versus H59Q; details: all seven experiments
T1 construct: endogenous in cells; host or cells: MT-transformed NIH3T3 cells (C subunit mutants stably transfected)
T1 sequence (Q8BVQ5 1-386): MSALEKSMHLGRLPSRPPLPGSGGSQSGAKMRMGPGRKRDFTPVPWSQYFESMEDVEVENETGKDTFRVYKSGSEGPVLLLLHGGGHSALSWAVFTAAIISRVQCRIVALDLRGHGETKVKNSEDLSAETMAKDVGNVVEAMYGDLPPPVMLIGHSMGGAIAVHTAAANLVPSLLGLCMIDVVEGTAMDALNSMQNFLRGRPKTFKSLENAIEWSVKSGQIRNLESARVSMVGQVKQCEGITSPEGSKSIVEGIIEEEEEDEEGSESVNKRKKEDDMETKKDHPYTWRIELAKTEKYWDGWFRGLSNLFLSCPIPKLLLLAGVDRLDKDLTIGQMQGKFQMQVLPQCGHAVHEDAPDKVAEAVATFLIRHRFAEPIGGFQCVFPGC

PP2A methyltransferase = details: cited from earlier work
PP2A = PP2A (Homo sapiens, UniProt P67775); type: biochemical
H59Q/PME-1 complex = target: T2, H59Q/PME-1 complex (Homo sapiens, UniProt P67775, H59Q); type: binding, mouse
T2 construct: expressed in transfected cells; host or cells: NIH3T3 (A3); MT-transformed NIH3T3 (A8); PME-1 is endogenous

[2] = tested on: 46 kDa PP2A methylesterase; details: cited from earlier work
human PME-1 [3] = type: biochemical
human PME-1 [4] = target: human PME-1 (Homo sapiens, UniProt Q9Y570); type: biochemical
human PME-1 (Homo sapiens, UniProt Q9Y570), sequence (Q9Y570 2-386): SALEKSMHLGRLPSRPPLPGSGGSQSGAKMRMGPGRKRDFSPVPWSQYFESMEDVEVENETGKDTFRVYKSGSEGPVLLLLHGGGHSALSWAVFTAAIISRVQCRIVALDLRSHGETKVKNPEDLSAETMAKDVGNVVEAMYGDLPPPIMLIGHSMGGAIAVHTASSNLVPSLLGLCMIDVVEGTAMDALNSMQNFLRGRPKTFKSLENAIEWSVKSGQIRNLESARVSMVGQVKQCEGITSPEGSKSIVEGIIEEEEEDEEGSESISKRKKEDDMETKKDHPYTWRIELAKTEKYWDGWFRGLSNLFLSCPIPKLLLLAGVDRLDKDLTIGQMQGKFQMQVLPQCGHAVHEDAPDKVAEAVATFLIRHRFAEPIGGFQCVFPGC

PP2A, sequence (P67775 whole entry): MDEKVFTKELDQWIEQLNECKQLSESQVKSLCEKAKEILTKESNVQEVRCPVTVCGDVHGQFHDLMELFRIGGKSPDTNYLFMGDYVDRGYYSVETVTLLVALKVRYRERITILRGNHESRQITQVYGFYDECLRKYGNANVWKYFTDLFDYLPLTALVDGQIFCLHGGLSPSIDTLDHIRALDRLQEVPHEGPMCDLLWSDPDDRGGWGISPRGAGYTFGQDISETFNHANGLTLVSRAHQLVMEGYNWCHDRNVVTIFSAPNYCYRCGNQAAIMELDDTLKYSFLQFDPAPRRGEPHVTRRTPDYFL
T2 sequence (P67775 whole entry H59Q): as the sequence (P67775 whole entry) above, with H59Q counted along it
T2 sequence (Q76MZ3 whole entry partner): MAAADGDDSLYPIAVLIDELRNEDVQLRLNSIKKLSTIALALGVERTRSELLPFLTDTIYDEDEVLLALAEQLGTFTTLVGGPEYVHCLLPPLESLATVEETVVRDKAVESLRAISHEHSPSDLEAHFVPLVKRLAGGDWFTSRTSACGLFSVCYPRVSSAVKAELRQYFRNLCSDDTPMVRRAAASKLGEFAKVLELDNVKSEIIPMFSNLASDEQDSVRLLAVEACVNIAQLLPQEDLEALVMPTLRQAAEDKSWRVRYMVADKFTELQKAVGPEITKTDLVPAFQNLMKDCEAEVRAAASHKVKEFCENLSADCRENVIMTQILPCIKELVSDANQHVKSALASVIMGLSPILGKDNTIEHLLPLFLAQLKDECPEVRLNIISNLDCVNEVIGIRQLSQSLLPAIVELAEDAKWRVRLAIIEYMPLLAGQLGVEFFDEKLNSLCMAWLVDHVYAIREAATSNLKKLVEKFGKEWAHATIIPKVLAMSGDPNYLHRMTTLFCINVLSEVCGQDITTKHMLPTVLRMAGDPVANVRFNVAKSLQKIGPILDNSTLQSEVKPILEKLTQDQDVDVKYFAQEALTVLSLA

Molecule: wt: HA-tagged wild-type PP2A C subunit
- C subunit-associated phosphatase activity, cdc2-phosphorylated Histone H1 (Mean ± s.d.) ([1]; substrate cdc2-phosphorylated histone H1): 100 % wt
- C subunit-associated phosphatase activity, phosphorylase a (Means ± s.d.) ([1]; substrate phosphorylase a): 100 % wt

Molecule: H59Q/301Stop: double mutant combining H59Q with deletion of the nine C subunit carboxy-terminal amino acids 301-309
- overall mean reduction of PME-1 bound relative to H59Q (PME-1): 28%

Molecule: C=C1C(=O)N[C@H](C)C(=O)N[C@@H](CC(C)C)C(=O)N[C@@H](C(=O)O)[C@H](C)C(=O)N[C@@H](CCCNC(=N)N)C(=O)N[C@@H](/C=C/C(C)=C/[C@H](C)[C@H](Cc2ccccc2)OC)[C@H](C)C(=O)N[C@@H](C(=O)O)CCC(=O)N1C [microcystin-LR] (R[Adda][d(γGlu)][NMeDha][dA]L[dAsp(3S-Me)]-OH; lactam N-7)
- inhibition of the PP2A methyltransferase (PP2A methyltransferase): inhibited

Molecule: [F-].[Na+] [sodium fluoride]
- inhibition of PP2A (PP2A): 91±10%
- amount of PME-1 bound to (complexed with) H59Q C subunit (H59Q/PME-1 complex): reduce; also recorded: decreased

Molecule: C=C1[C@@H](O)[C@@H]2O[C@]3(CC[C@H](/C=C/[C@@H](C)[C@@H]4CC(C)=C[C@@]5(O[C@H](C[C@@](C)(O)C(=O)O)CC[C@H]5O)O4)O3)CC[C@H]2O[C@@H]1[C@@H](O)C[C@H](C)[C@H]1O[C@@]2(CCCCO2)CC[C@H]1C [okadaic acid]
- inhibition of PP2A (PP2A): 97±4%
- inhibition of the PP2A methyltransferase (PP2A methyltransferase): inhibited
- inhibition of the 46 kDa PP2A methylesterase [2]: inhibited
- amount of PME-1 bound to (complexed with) H59Q C subunit (H59Q/PME-1 complex): reduce; also recorded: decreased
- methylesterase activity of bacterially expressed PME-1 (human PME-1 [3]): inhibited

Molecule: O=S(=O)(F)Cc1ccccc1 [PMSF, phenylmethylsulfonyl fluoride]
- methylesterase activity of bacterially expressed PME-1 (human PME-1 [4]): not

Molecule: sodium vanadate
- inhibition of PP2A (PP2A): 25±18%
- amount of PME-1 bound to (complexed with) H59Q C subunit (H59Q/PME-1 complex): not
